Test results taken from ChEMBL document CHEMBL1157597, “Exploring a synthetic organoselenium compound for antioxidant pharmacotherapy--toxicity and effects on ROS-production” (Bioorg Med Chem, 2010).
The source made the active and inactive calls. No cut-off for these calls is given here.

Assays:
[1] = Antioxidant activity against ABTS radicals assessed as trolox equivalents in phosphate buffer of pH 7.4 at 6.08 uM by ABTS assay; assay type: functional
SH-SY5Y [2] = assay: Cytotoxicity against human SH-SY5Y cells assessed as cell death at 60 uM after 7 days by LDH assay; assay type: cell-based; conditions: 168 h
SH-SY5Y [3] = assay: Cytotoxicity against human SH-SY5Y cells assessed as plasma membrane damage at 60 uM after 7 days by LDH assay; assay type: cell-based; conditions: 168 h
MRC5 [4] = assay: Cytotoxicity against human MRC5 cells assessed as plasma membrane damage at 60 uM after 7 days by LDH assay; assay type: cell-based; conditions: mrc5, 168 h
HEK293 [5] = assay: Cytotoxicity against HEK293 cells assessed as cell death at 60 uM after 7 days by LDH assay; assay type: cell-based; conditions: human, hek293, 168 h
Caco-2 [6] = assay: Cytotoxicity against human Caco-2 cells assessed as cell death at 60 uM after 7 days by LDH assay; assay type: cell-based; conditions: caco-2, 168 h
HEK293 [7] = assay: Cytotoxicity against HEK293 cells assessed as plasma membrane damage at 60 uM after 7 days by LDH assay; assay type: cell-based; conditions: human, hek293, 168 h
Caco-2 [8] = assay: Cytotoxicity against human Caco-2 cells assessed as plasma membrane damage at 60 uM after 7 days by LDH assay; assay type: cell-based; conditions: caco-2, 168 h
[9] = Cytotoxicity against human MG63 cells assessed as plasma membrane damage at 60 uM after 7 days by LDH assay; assay type: cell-based; conditions: mg-63, 168 h
[10] = Cytotoxicity against human MG63 cells assessed as cell death at 60 uM after 7 days by LDH assay; assay type: cell-based; conditions: mg-63, 168 h
MRC5 [11] = assay: Cytotoxicity against human MRC5 cells assessed as cell death at 60 uM after 7 days by LDH assay; assay type: cell-based; conditions: mrc5, 168 h
SH-SY5Y [12] = assay: Cytotoxicity against human SH-SY5Y cells assessed as decrease in proliferation up to 200 uM after 7 days by alamar blue assay; assay type: cell-based; conditions: 168 h
Caco-2 [13] = assay: Cytotoxicity against human Caco-2 cells assessed as decrease in proliferation up to 200 uM after 7 days by alamar blue assay; assay type: cell-based; conditions: caco-2, 168 h
[14] = Cytotoxicity against human MG63 cells assessed as decrease in proliferation up to 200 uM after 7 days by alamar blue assay; assay type: cell-based; conditions: mg-63, 168 h
Neutrophil = assay: (§1) Antioxidant activity against ROS-production in human neutrophils by chemiluminescence; assay type: functional, cell-based
[15] = as §1; assay type: functional, cell-based; conditions: Neutrophil
HEK293 [16] = assay: Cytotoxicity against HEK293 cells assessed as decrease in proliferation up to 200 uM after 7 days by alamar blue assay; assay type: cell-based; conditions: human, hek293, 168 h
THP-1 = assay: Antioxidant activity against ROS-production in PMA-stimulated human THP1 cells by chemiluminescence; assay type: cell-based
MRC5 [17] = assay: Cytotoxicity against human MRC5 cells assessed as decrease in proliferation up to 200 uM after 7 days by alamar blue assay; assay type: cell-based; conditions: mrc5, 168 h

| SMILES | Activity [1] | Activity (SH-SY5Y [2]) | Activity (SH-SY5Y [3]) | Activity (MRC5 [4]) | Activity (HEK293 [5]) | Activity (Caco-2 [6]) | Activity (HEK293 [7]) | Activity (Caco-2 [8]) | Activity [9] | Activity [10] | Activity (MRC5 [11]) | Activity (SH-SY5Y [12]) | Activity (Caco-2 [13]) | Activity [14] | Activity (Neutrophil) | IC50 [15] [nM] | Activity (HEK293 [16]) | Activity (THP-1) | Activity (MRC5 [17]) |
| --- | --- | --- | --- | --- | --- | --- | --- | --- | --- | --- | --- | --- | --- | --- | --- | --- | --- | --- | --- |
| O=C1O[C@H]([C@@H](O)CO)C([O-])=C1O.[Na+] | Active |  |  |  |  |  |  |  |  |  |  |  |  |  |  |  |  |  |  |
| CC(=O)N[C@@H](CS)C(=O)O | 2.4 |  |  |  |  |  |  |  |  |  |  |  |  |  |  |  |  |  |  |
| Cc1c(C)c2c(c(C)c1O)CCC(C)(C(=O)O)O2 (stereo unspecified) [TROLOX] |  | Non-toxic | Non-toxic | Non-toxic | Non-toxic | Non-toxic | Non-toxic | Non-toxic | Non-toxic | Non-toxic | Non-toxic |  |  |  |  |  |  |  |  |
| CC1Cc2cc(O)ccc2[Se]1 (stereo unspecified) | Active | Non-toxic | Non-toxic | Non-toxic | Non-toxic | Non-toxic | Non-toxic | Non-toxic | Non-toxic | Non-toxic | Non-toxic | Non-toxic | Non-toxic | Non-toxic | Dose-dependent effect | 1000 | Non-toxic | Dose-dependent effect | Non-toxic |
